Reference: the supplement of paper PMC5908809

Assays:
[1] = test system: normal primary NK cells, pool 1 (3 donors) (IL-2 2.5 ng/mL); test: percent inhibition of viability; higher = more inhibition; conditions: 72 h
NK-92 (IL-2 2.5 ng/mL) [2] = test: as above; conditions: 72 h
NKL (IL-2 2.5 ng/mL) [3] = test: as above; conditions: 72 h
[4] = test system: normal primary NK cells, pool 3 (3 donors) (IL-2 2.5 ng/mL); test: as above; conditions: 72 h
KHYG-1 (IL-2 2.5 ng/mL) [5] = test: as above; conditions: 72 h
YT (IL-2 2.5 ng/mL) [6] = test: as above; conditions: 72 h
IMC-1 (IL-2 20 ng/mL) [7] = test: as above; conditions: 72 h
DERL-7 (IL-2 2.5 ng/mL) [8] = test: as above; conditions: 72 h
SNK-6 (IL-2 2.5 ng/mL) [9] = test: as above; conditions: 72 h
[10] = test system: normal primary NK cells, pool 1 (3 donors), resting (IL-2 0 ng/mL); test: as above; conditions: 72 h
[11] = test system: normal primary NK cells, pool 2 (3 donors) (IL-2 2.5 ng/mL); test: as above; conditions: 72 h
KAI3 (IL-2 2.5 ng/mL) [12] = test: as above; conditions: 72 h
NK-YS (IL-2 2.5 ng/mL) [13] = test: as above; conditions: 72 h
[14] = test system: normal primary NK cells, pool 1 (3 donors) (IL-2 2.5 ng/mL); test: drug sensitivity score (DSS) (DSS units); higher = more sensitive; extreme values may be limits of the assay; conditions: 72 h
NK-92 (IL-2 2.5 ng/mL) [15] = test: as above; conditions: 72 h
NKL (IL-2 2.5 ng/mL) [16] = test: as above; conditions: 72 h
[17] = test system: normal primary NK cells, pool 3 (3 donors) (IL-2 2.5 ng/mL); test: as above; conditions: 72 h
KHYG-1 (IL-2 2.5 ng/mL) [18] = test: as above; conditions: 72 h
YT (IL-2 2.5 ng/mL) [19] = test: as above; conditions: 72 h
IMC-1 (IL-2 20 ng/mL) [20] = test: as above; conditions: 72 h
DERL-7 (IL-2 2.5 ng/mL) [21] = test: as above; conditions: 72 h
SNK-6 (IL-2 2.5 ng/mL) [22] = test: as above; conditions: 72 h
[23] = test system: normal primary NK cells, pool 1 (3 donors), resting (IL-2 0 ng/mL); test: as above; conditions: 72 h
[24] = test system: normal primary NK cells, pool 2 (3 donors) (IL-2 2.5 ng/mL); test: as above; conditions: 72 h
KAI3 (IL-2 2.5 ng/mL) [25] = test: as above; conditions: 72 h
NK-YS (IL-2 2.5 ng/mL) [26] = test: as above; conditions: 72 h
[27] = test system: normal NK cells expanded with K562-aAPC; test: percent inhibition of viability; higher = more inhibition; conditions: 72 h, IL-2 2.5 ng/mL
Procedure: (§1)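 Drug sensitivity and resistance testing on K562-aAPC-expanded normal NK cells: 5 concentrations (10-fold steps over a 10,000-fold range), 72 h at 37 °C, viability by CellTiter-Glo normalised to DMSO and benzethonium chloride controls; DSS from the fitted curve.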

[28] = test system: normal NK cells expanded with K562-aAPC; test: drug sensitivity score (DSS) (DSS units); higher = more sensitive; extreme values may be limits of the assay; conditions: 72 h; IL-2 2.5 ng/mL
Procedure: as §1

O=c1[nH]cc(F)c(=O)[nH]1 [Fluorouracil] (max concentration tested 10000 nM)
percent inhibition of viability [%]
Conditions | 1 nM | 10 nM | 100 nM | 1000 nM | 10000 nM
DERL-7 (IL-2 2.5 ng/mL) [8] | -1.71 | -2.2 | -3.46 | 5.05 | 60.8
IMC-1 (IL-2 20 ng/mL) [7] | -7.45 | 1.88 | -3.48 | 4.56 | 12.9
KAI3 (IL-2 2.5 ng/mL) [12] | -0.14 | 3.84 | 8.25 | 42.8 | 49.3
KHYG-1 (IL-2 2.5 ng/mL) [5] | -4.58 | -7.58 | -3.77 | 12.7 | 86.4
NK-92 (IL-2 2.5 ng/mL) [2] | -11.2 | 1.29 | 5.09 | 42.9 | 60
NK-YS (IL-2 2.5 ng/mL) [13] | -1.75 | 0.12 | 4.17 | 40.3 | 84
NKL (IL-2 2.5 ng/mL) [3] | -15.3 | -7.36 | -0.39 | 28.1 | 74.8
SNK-6 (IL-2 2.5 ng/mL) [9] | -7.99 | -14.1 | -22.8 | 34.2 | 86.7
YT (IL-2 2.5 ng/mL) [6] | -7.37 | -4.14 | -1.13 | 39.8 | 64
[1] | -1.01 | 15.2 | 8.55 | 0.37 | 11.4
[4] | -3.48 | 2.62 | 7.34 | 0.65 | 7.07
[10] | 2.96 | 13.7 | 16.1 | 21.9 | 19
[11] | 1.43 | 2.09 | 10.1 | 5 | 7.54
[27] | -6.1 | -8.86 | -5.42 | 2.62 | 38.1

Conditions | drug sensitivity score
DERL-7 (IL-2 2.5 ng/mL) [21] | 4.1
IMC-1 (IL-2 20 ng/mL) [20] | 0.36
KAI3 (IL-2 2.5 ng/mL) [25] | 8.77
KHYG-1 (IL-2 2.5 ng/mL) [18] | 6.91
NK-92 (IL-2 2.5 ng/mL) [15] | 8.76
NK-YS (IL-2 2.5 ng/mL) [26] | 9.4
NKL (IL-2 2.5 ng/mL) [16] | 8.01
SNK-6 (IL-2 2.5 ng/mL) [22] | 9.4
YT (IL-2 2.5 ng/mL) [19] | 8.28
[14] | 0
[17] | 0
[23] | 5.42
[24] | 0
[28] | 2.24

CC(C)c1cc(-c2n[nH]c(=O)n2-c2ccc3c(ccn3C)c2)c(O)cc1O [Ganetespib] (max concentration tested 1000 nM)
percent inhibition of viability [%]
Conditions | 0.1 nM | 1 nM | 10 nM | 100 nM | 1000 nM
DERL-7 (IL-2 2.5 ng/mL) [8] | -4.38 | 6.84 | 68.9 | 101 | 101
IMC-1 (IL-2 20 ng/mL) [7] | -2.6 | -2.72 | -0.68 | 99.7 | 101
KAI3 (IL-2 2.5 ng/mL) [12] | -0.77 | -8.2 | 40.1 | 101 | 107
KHYG-1 (IL-2 2.5 ng/mL) [5] | 1.44 | 4.41 | 5.54 | 99.7 | 109
NK-92 (IL-2 2.5 ng/mL) [2] | -6.96 | -10.1 | 22.3 | 97.8 | 105
NK-YS (IL-2 2.5 ng/mL) [13] | -2.27 | -6.04 | 33.9 | 101 | 107
NKL (IL-2 2.5 ng/mL) [3] | -3.59 | 1.19 | 45.1 | 90 | 92.9
SNK-6 (IL-2 2.5 ng/mL) [9] | -23.6 | -15.5 | 5.21 | 86.1 | 88.1
YT (IL-2 2.5 ng/mL) [6] | -3.81 | -4.31 | 1.84 | 93.2 | 99.1
[1] | 1.74 | 4.42 | 62.4 | 86.4 | 86.4
[4] | -14.5 | -11 | 45.4 | 78.5 | 79.9
[10] | 2.3 | -0.42 | 39.1 | 41.8 | 52.9
[11] | -4.93 | 1.18 | 65.2 | 77.6 | 79.6
[27] | -7.81 | -3.48 | 56 | 98.1 | 99.3

Conditions | drug sensitivity score
DERL-7 (IL-2 2.5 ng/mL) [21] | 26.6
IMC-1 (IL-2 20 ng/mL) [20] | 17.9
KAI3 (IL-2 2.5 ng/mL) [25] | 23.3
KHYG-1 (IL-2 2.5 ng/mL) [18] | 18.7
NK-92 (IL-2 2.5 ng/mL) [15] | 21.4
NK-YS (IL-2 2.5 ng/mL) [26] | 22.8
NKL (IL-2 2.5 ng/mL) [16] | 22
SNK-6 (IL-2 2.5 ng/mL) [22] | 16.5
YT (IL-2 2.5 ng/mL) [19] | 17.1
[14] | 23.5
[17] | 20.1
[23] | 14.4
[24] | 22.3
[28] | 24.6
